Test results: article PMC13230610, “Fast analysis and engineering of protein function by microbe-independent deep assembly and screening” (Molecular Systems Biology, 2026)

Tests used:
[1] = tested on: T1, ACh-NeuBI0.5 (engineered OpuBC fused with SmBiT/LgBiT and mScarlet-I); assay: bioluminescence dose-response of indicator expressed on HEK293A cells; type: cell-based, Homo sapiens (HEK293A cells)
T1 construct: mScarlet-I at N-terminus of OpuBC (30-106)-linker 1 (Phe)-SmBiT (∆C3)-LgBiT-OpuBC (107-305)

[2] = tested on: T2, ACh-NeuBI1b (ACh-NeuBI0.5 QAE; engineered OpuBC fused with SmBiT/LgBiT and mScarlet-I); assay: bioluminescence dose-response in HEK293A cells; also purified protein responded; type: cell-based, Homo sapiens (HEK293A cells)
T2 construct: ACh-NeuBI0.5 QAE

SMILES | Kd [1] | Kd [2]
C[N+](C)(C)CCO [choline] | 11000 µM | –
CC(=O)OCC[N+](C)(C)C [acetylcholine] | 898 µM | 188 µM
